{
  "source": "patent US9308174B2",
  "about": "“Lyophilized formulations of bendamustine hydrochloride” (CHEMI S.P.A., priority 2013, dated 2016)",
  "origin": "cited, not measured here",
  "key": {"[1]": {"settings": "water, 5° C."}},
  "note": "Where two headings read alike, the source gives them in different places.",
  "data": [
    {"molecule": "Cl.Cn1c(CCCC(=O)O)nc2cc(N(CCCl)CCCl)ccc21", "note": "[bendamustine hydrochloride, Bendamustine hydrochloride]", "values": [
      {"measurement": "time to 10% degradation of the active ingredient", "setting": "aqueous solution 0.25 mg/ml, room temperature", "result": 4.2, "unit": "h"},
      {"measurement": "time to lose 10% of its title (t90)", "setting": "solution at 4° C.", "result": 119.5, "unit": "h"},
      {"measurement": "time to lose 10% of its title (t90)", "setting": "solution at 23° C.", "result": 9.2, "unit": "h"},
      {"measurement": "HP1 percentage", "setting": "[1]; after 3 hours", "result": 0.86, "unit": "%"},
      {"measurement": "HP1 percentage", "setting": "[1]; after 6 hours", "result": 3.81, "unit": "%"},
      {"measurement": "appearance of the solution", "setting": "[1]; after 6 hours", "result": "formation of a precipitate"},
      {"measurement": "HP1 percentage", "setting": "[1]; time=0", "result": 0.6, "unit": "%"}
    ]}
  ]
}
